Read-outs that look alike come from different tables or passages of the source.
What was measured:
[1] = test system: MDA-MB231-luc-D3H2LN cells; test: Viability (MTS) assay on the cells in collagen under invasion assay conditions; assay type: cell-based, human; conditions: loss of viability at the concentration giving 0.5 × effect of 10 μM Y-27632, invasion assay conditions
In short: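 Run on cells embedded in collagen after a further 24 h, on serum-starved cells and in parallel on cells in 10% FBS. MTS reagent 3–4 h at 37 °C, absorbance at 490 nm; background-corrected signals expressed as % of untreated control.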

[2] = test system: MDA-MB231-luc-D3H2LN cells; test: Toxicity assay under normal cell culture conditions (MTS), MDA cells; assay type: cell-based, human; conditions: for toxicity on MDA-MB231 compared to comparative compound (in words): 1 vs C88 (112), 3 vs 583, 4 vs 585; for MDA tox: 50% tox. at (μM) av: MDA-MB231-luc-D3H2LN cells, MEM+10% FBS, 72 h incubation, MTS
In short: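 Under normal culture conditions (MEM with 10% FBS), MDA-MB231-luc-D3H2LN cells (2000/well) were exposed to compound concentration series for 72 h. Viability measured by MTS assay. Value is the concentration giving 50% toxicity.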

[3] = test system: MDA-MB231-luc-D3H2LN cells; test: Invasion of MDA-MB231-D3H2LN cells into collagen (example 15 = procedure 2, 48 h drug pre-incubation); assay type: cell-based; conditions: for invasiveness inhibition compared to comparative compound (in words): 1 vs C88 (112), 4 vs 585; for anti-invasive activity (in words): second set of experiments, procedure 2 (example 15)
In short: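 Cells embedded at the bottom of collagen gels were pre-treated 48 h with compound in 0.025% FBS, then stimulated with 5% FBS for 24 h at 37° C. Nuclei were imaged at 0, 25 and 50 µm to give mean invasion distance, with MTS viability also measured. Value is the concentration giving 50% of the effect of 10 µM Y-27632.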

hERG channel = target: T1, hERG channel (Homo sapiens, UniProt Q12809); test: hERG channel inhibition (electrophysiology, hERG-transfected HEK293 cells); assay type: cell-based; conditions: for % hERG inhibition in transfected HEK (n = 3) at 1 μM av: 1 μM compound; for % hERG inhibition in transfected HEK (n = 3) at 10 μM av: 10 μM compound; for hERG inhibition compared to comparative compound (in words): 1 vs C88 (112), 3 vs 583, 4 vs 585
T1 construct: host or cells: HEK293
T1 sequence (Q12809 whole entry): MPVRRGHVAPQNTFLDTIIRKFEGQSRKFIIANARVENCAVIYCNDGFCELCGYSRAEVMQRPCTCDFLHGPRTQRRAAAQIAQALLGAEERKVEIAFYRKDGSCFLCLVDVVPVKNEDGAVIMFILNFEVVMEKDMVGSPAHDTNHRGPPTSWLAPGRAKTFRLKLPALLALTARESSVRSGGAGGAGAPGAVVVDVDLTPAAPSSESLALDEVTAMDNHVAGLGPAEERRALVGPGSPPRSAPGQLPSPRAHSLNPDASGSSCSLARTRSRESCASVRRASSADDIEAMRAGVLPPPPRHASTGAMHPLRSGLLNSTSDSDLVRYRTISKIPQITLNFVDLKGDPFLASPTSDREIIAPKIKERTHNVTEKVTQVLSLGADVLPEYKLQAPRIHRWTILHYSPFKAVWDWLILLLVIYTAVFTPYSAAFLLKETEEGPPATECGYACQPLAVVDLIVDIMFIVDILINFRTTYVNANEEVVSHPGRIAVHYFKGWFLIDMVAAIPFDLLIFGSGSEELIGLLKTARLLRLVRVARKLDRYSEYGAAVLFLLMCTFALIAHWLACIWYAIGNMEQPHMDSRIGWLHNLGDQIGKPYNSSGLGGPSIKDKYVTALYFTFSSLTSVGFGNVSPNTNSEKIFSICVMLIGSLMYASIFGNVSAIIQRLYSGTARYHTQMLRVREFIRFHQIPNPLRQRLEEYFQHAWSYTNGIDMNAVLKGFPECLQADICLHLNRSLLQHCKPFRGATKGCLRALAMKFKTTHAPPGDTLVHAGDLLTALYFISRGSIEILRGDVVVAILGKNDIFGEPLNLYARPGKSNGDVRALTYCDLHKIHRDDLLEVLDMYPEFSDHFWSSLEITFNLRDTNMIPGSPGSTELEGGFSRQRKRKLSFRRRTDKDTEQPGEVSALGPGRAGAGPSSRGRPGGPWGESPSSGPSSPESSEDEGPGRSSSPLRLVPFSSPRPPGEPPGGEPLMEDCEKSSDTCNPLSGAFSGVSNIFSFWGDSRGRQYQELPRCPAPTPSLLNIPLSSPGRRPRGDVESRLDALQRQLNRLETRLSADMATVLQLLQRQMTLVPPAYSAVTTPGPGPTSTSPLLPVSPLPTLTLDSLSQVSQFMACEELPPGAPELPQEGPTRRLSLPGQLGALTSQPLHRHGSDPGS
Description: Performed by Porsolt & Partners (Z. A. de Glatigné, 53940 Le Genest-Saint-Isle, France). Briefly, each 3 hERG-transfected HEK293 cells were superfused with the compounds at 1 and 10 μM, and the hERG channel current was measured by electrophysiology, as described by Crumb et al., J. Pharmacol. Exp. Ther. 2000.

human PBMC = test: Toxicity assay under normal cell culture conditions (MTS), PBMC; assay type: cell-based; conditions: for toxicity on PBMC compared to comparative compound (in words): 1 vs C88 (112), 3 vs 583, 4 vs 585; for PBMC tox.: 50% tox. at (μM) av: human PBMC, RPMI+10% FBS+IL-2, 72 h incubation, MTS
In short: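 Human PBMC (75000/well) in RPMI + 10% FBS + IL-2 were exposed to compounds for 72 h, with viability read by MTS. Concentration-response curves gave the concentration producing 50% toxicity.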

[4] = test system: MDA-MB231-luc-D3H2LN cells; test: Invasion of MDA-MB231-D3H2LN cells into collagen (procedure 1, 24 h drug incubation); assay type: cell-based, human; conditions: for anti-invasive activity (in words): first set of experiments, procedure 1; for Invasion av.: number of cells per valid field at 50 μm, fold inhibitory effect compared to 10 μM Y-27632: procedure 1, first set of experiments
Description: It is to be noted that both Procedures 1 and 2 are invasion assays to test effect of drug compounds on invasion. They are both fully identical except for the time of incubation with the drug.
Here, invasion (into collagen) is the number of cells per valid field at 50 μm fold inhibitory effect compared to 10 μM Y-27632.
Standard Operating Procedure 1:
Said procedure is as described in example 15 except with respect to (i) the last step during day 1 “preparation of the invasion assay” and “treatment with the drugs” and days 2 and 3 which are detailed hereinafter and (ii) the fact that no concentration nor toxicity is determined at the end.
add each 33 μl/well of the 4× concentrated drug solutions in MEM+0.1% FBS to the corresponding wells in all three plates, according to the plate maps above
incubate 24 h at 37° C./5% CO2
The analysis as performed in day 5 in example 15 is performed exactly under the same conditions in day 3 in the framework of the present procedure 1.

[5] = Homo sapiens, procedure 2, second set of experiments, read-out: Invasion Av.: concentration of the compound necessary to reach 50% of the inhibition effect compared to 10 μM Y-27632
[6] = concentration giving 50% of the anti-invasive effect of 10 μM Y-27632, 48 h pre-incubation, 24 h with 5% FBS, read-out: MDA: Inhib. of invasion: 0.5 × eff. of 10 μM Y-27632 at (μM) av

Compound | (+ MDA tox. under these cond.) % tox [1] [%] | toxicity on MDA-MB231 compared to comparative compound (in words) [2] | MDA tox: 50% tox. at (μM) av [2] [µM] | invasiveness inhibition compared to comparative compound (in words) [3] | IC50 [3, 5] [µM] | IC50 [3, 6] [µM] | anti-invasive activity (in words) [3] | % hERG inhibition in transfected HEK (n = 3) at 1 μM av (hERG channel) [%] | % hERG inhibition in transfected HEK (n = 3) at 10 μM av (hERG channel) [%] | hERG inhibition compared to comparative compound (in words) (hERG channel) | toxicity on PBMC compared to comparative compound (in words) (human PBMC) | PBMC tox.: 50% tox. at (μM) av (human PBMC) [µM] | anti-invasive activity (in words) [4] | Invasion av.: number of cells per valid field at 50 μm, fold inhibitory effect compared to 10 μM Y-27632 [4]
CCN(CC)CCCNC(=O)c1cccc(Nc2cccc(C(=O)Nc3ccncc3)c2)c1 [Compound 1, N-(3-(diethylamino)propyl)-3-((3-(pyridin-4-ylcarbamoyl)phenyl)amino)benzamide] | <10 | less toxic | 46 | more potent | 0.13 | 0.13 | anti-invasive activity is detected | 13 | 47 | less hERG inhibition | less toxic | 51 | – | –
CCN(CC)CCCNC(=O)c1cccc(Nc2cccc(NC(=O)c3cccnc3)c2)c1 [FMMB46.1] | – | – | – | – | – | – | – | – | – | – | – | – | no effect was observed | 0.02
O=C(NCCCN1CCCC1)c1cccc(Nc2cccc(C(=O)Nc3ccncc3)c2)c1 [Compound 4, N-(pyridin-4-yl)-3-((3-((3-(pyrrolidin-1-yl)propyl)carbamoyl)phenyl)amino)benzamide] | <10 | less toxic | 54 | more potent | – | 0.21 | – | 6 | 59 | less hERG inhibition | less toxic | 42 | – | –
O=C(NCCCN1CCOCC1)c1cccc(Nc2cccc(C(=O)Nc3ccncc3)c2)c1 [Compound 3, N-(3-morpholinopropyl)-3-((3-(pyridin-4-ylcarbamoyl)phenyl)amino)benzamide] | <10 | less toxic | 51 | – | – | 0.29 | – | 14 | 54 | less hERG inhibition | less toxic | 51 | – | –
O=C(Nc1ccncc1)c1cccc(Nc2cccc(S(=O)(=O)NCCCN3CCOCC3)c2)c1 [Compound 12, 3-((3-(N-(3-morpholinopropyl)sulfamoyl)phenyl)amino)-N-(pyridin-4-yl)benzamide] | <10 | – | 60 | – | – | 0.46 | – | 11 | 55 | – | – | 54 | – | –
O=C(Nc1ccncc1)c1cccc(Nc2cccc(S(=O)(=O)NCCCN3CCCCC3)c2)c1 [Compound 9, 3-((3-(N-(3-(piperidin-1-yl)propyl)sulfamoyl)phenyl)amino)-N-(pyridin-4-yl)benzamide] | <10 | – | 44 | – | – | 0.28 | – | 5 | 50 | – | – | 36 | – | –
CCN(CC)CCCNC(=O)c1ccnc(Nc2cccc(C(=O)Nc3ccncn3)c2)c1 [Compound 41, N-(3-(diethylamino)propyl)-2-((3-(pyrimidin-4-ylcarbamoyl)phenyl)amino)isonicotinamide] | <10 | – | ≥80 | – | – | 1.5 | – | 8 | 53 | – | – | >100 | – | –
CCN(CC)CCCNC(=O)c1cccc(Nc2cccc(C(=O)Nc3ccncc3)c2)n1 [Compound 35, N-(3-(diethylamino)propyl)-6-((3-(pyridin-4-ylcarbamoyl)phenyl)amino)picolinamide] | <10 | – | 59 | – | – | 0.55 | – | 4 | 30 | – | – | 128 | – | –
O=C(NCCCN1CCCC1)c1cccc(Nc2cccc(/C=C/c3ccncc3)c2)c1 [Compound 585, reference compound] | <10 | – | 10 | – | – | 0.3 | – | 42 | 77 | – | – | 9 | – | –
CCN(CC)CCCNC(=O)c1cccc(Nc2cccc(C(=O)Nc3ccncn3)c2)n1 [Compound 40, N-(3-(diethylamino)propyl)-6-((3-(pyrimidin-4-ylcarbamoyl)phenyl)amino)picolinamide] | <10 | – | 73 | – | – | 0.75 | – | 26 | 59 | – | – | >100 | – | –
CCN(CC)CCCNC(=O)c1cccc(Nc2cccc(/C=C/c3ccncc3)c2)c1 [Compound C88, reference compound] | <10 | – | 10 | – | 0.39 | 0.39 | anti-invasive activity is detected | 55 | 92 | – | – | 10 | anti-invasive activity was detected | 1
O=C(NCCCN1CCOCC1)c1cccc(Nc2cccc(/C=C/c3ccncc3)c2)c1 [Compound 583, reference compound] | <10 | – | 21 | – | – | 0.25 | – | 36 | 74 | – | – | 18 | – | –
CCN(CC)CCCNS(=O)(=O)c1cccc(Nc2cccc(C(=O)Nc3ccncc3)c2)c1 [Compound 5, 3-((3-(N-(3-(diethylamino)propyl)sulfamoyl)phenyl)amino)-N-(pyridin-4-yl)benzamide] | <10 | – | 68 | – | – | 1.31 | – | 1 | 29 | – | – | 74 | – | –

From patent US9969715B2, “Compounds useful for treating cancer” (ABIVAX, priority 2012, dated 2018)
